“Also recorded” adds a separate entry of the source.
What was measured:
[1] = target: T1, alpha-synuclein/Synapsin III interaction (Homo sapiens, UniProt O14994+P37840); assay: Acceptor photobleaching FRET of alpha-synuclein/Synapsin III interaction in neuronal-differentiated SK-N-SH cells; format: cell-based; conditions: 10 μM, 15 min; for stimulation of alpha-synuclein/Synapsin III interaction (FRET efficiency), in words: vs basal; for % FRET efficiency change vs MPH-treated cells: vs MPH 10 μM
T1 construct: expressed in transfected cells; host or cells: neuronal-differentiated (retinoic acid) human SK-N-SH neuroblastoma cells, transient transfection with Lipofectamine 3000
Description: The ability of the different compound to stimulate alpha-synuclein/Synapsin III interaction was evaluated by acceptor photobleaching FRET or FLIM in neuronal-like cells. In particular, we used neuronal-differentiated SK—N—SH neuroblastoma cells transiently transfected with red fluorescent protein (RFP)-tagged human wild type alpha-synuclein and green fluorescent protein (GFP)-tagged the human 63 kDa Synapsin III isoform.
Acceptor photobleaching FRET microscopy allows an accurate evaluation of protein-protein interaction through the measurement of FRET efficiency. This parameter is indicative of the increase of donor fluorescence after complete photobleaching of the acceptor fluorescence, within a FRET pair of fluorophores (where the emission wavelength of a donor falls within the excitation wavelength of an acceptor). Since FRET efficiency is detectable only when the two fluorophores are sufficiently close to ensure that their linked proteins are interacting, the molecular proximity of these latter results strictly dependent on this parameter^36,37. […] Human neuroblastoma SK—N—SH cells were grown in complete medium comprising Dulbecco's modified Eagle's medium with 1000 mg glucose/l supplemented with 10% heat-inactivated fetal bovine serum, 100 μg/ml penicillin and 100 μg/ml streptomycin. Cells were maintained at 37° C. under a humidified atmosphere of 5% CO2 and […]. For FRET studies, SK—N—SH cells were seeded onto poli-D-lysine-coated 13 mm glass coverslips in 24-well plates (15000 cells per coverslip) and were maintained in differentiation medium for ten days by daily adding 10 μM retinoic acid to the medium. […] Fixed cells were analyzed by means of a Zeiss confocal laser microscope LSM 880 (Carl Zeiss) with the laser set on A=488-543. After identifying double positive cells three-to-six regions of interest (ROI) were analyzed for 4 series. Two images of basal condition (Pre-bleaching) were acquired before bleaching the RFP acceptor fluorophore with laser 543 set at 65% power. Then, other two images were acquired after the bleaching (Post-bleaching). The FRET efficiency (intended as the GFP recovery after RFP photobleaching) was measured by using Zen black software (Carl Zeiss). The average intensity of the background (outside the cell) was subtracted from the average intensity of the ROI and all the FRET values resulting from the different ROI were used for statistical analysis.
Human neuroblastoma SK—N—SH cells were grown in complete medium comprising Dulbecco's modified Eagle's medium with 1000 mg glucose/l supplemented with 10% heat-inactivated fetal bovine serum, 100 μg/ml penicillin and 100 μg/ml streptomycin. Cells were maintained at 37° C. under a humidified atmosphere of 5% CO2 and […]. For FRET studies, SK—N—SH cells were seeded onto poli-D-lysine-coated 13 mm glass coverslips in 24-well plates (15000 cells per coverslip) and were maintained in differentiation medium for ten days by daily adding 10 μM retinoic acid to the medium. […] Fixed cells were analyzed by means of a Zeiss confocal laser microscope LSM 880 (Carl Zeiss) with the laser set on λ=488-543. After identifying double positive cells three-to-six regions of interest (ROI) were analyzed for 4 series. Two images of basal condition (Pre-bleaching) were acquired before bleaching the RFP acceptor fluorophore with laser 543 set at 65% power. Then, other two images were acquired after the bleaching (Post-bleaching). The FRET efficiency (intended as the GFP recovery after RFP photobleaching) was measured by using Zen black software (Carl Zeiss). The average intensity of the background (outside the cell) was subtracted from the average intensity of the ROI and all the FRET values resulting from the different ROI were used for statistical analysis.

[2] = system: primary mesencephalic cultures; assay: MTT cell viability assay; format: cell-based, mouse; conditions: 24 h
Description: The cytotoxic effect of compounds treatment was measured by evaluating mitochondrial dehydrogenase activity using the MTT salt assay.
Neuronal differentiated SK—N—SH cells were thus exposed to different concentrations of I-threo, IV-threo, I-erythro, V-threo and V-erythro as described above, and then used for the MTT cell viability assay.
Animals: C57BL/6J wt mice (C57BL/6J) (Charles River, Wilmington, MA) used in this study, were bred in our animal house facility at the Department of Molecular and Translational Medicine of University of Brescia. Animals were maintained under a 12h light-dark cycle at a room temperature (rt) of 22° C. and had ad libitum food and water. All experiments were made in accordance to Directive 2010/63/EU of the European Parliament and of the Council of 22 Sep. 2010 on the protection of animals used. All experimental and surgical procedures conformed to the National Research Guide for the Care and Use of Laboratory Animals were approved by the Animal Research Committees of the University of Brescia (Protocol Permit 719/2015-PR). All achievements were made to minimize animal suffering and to reduce the number of animals used. Primary neuronal cultures from mesencephalic tissues were dissected from C57BL/6J 13-days embryos. Briefly, after mechanical dissociation the single cells were re-suspended in Neurobasal medium containing 100 μg/ml penicillin, 100 μg/ml streptomycin, 0.5 mM glutamine and 1% B27 supplement. Cells were then centrifuged and cell count and viability assays were performed using the Trypan Blue exclusion test. Cells were seeded onto poly-D-lysine-coated glass coverslides in 24-well plates (14 μg/mL) for immunocytochemistry (100000 cells/well). Cells were maintained at 37° C. under a humidified atmosphere of 5% CO2 and […] for at least 10 days in vitro (DIV 10) prior to their use to allow their maturation. At DIV 10, cells were treated with increasing concentrations (0.01 μM-0.1 μM-1 μM-[…]) of the different compounds (I-threo, IV-threo, I-erythro, V-threo, VI-threo). Twenty-four h after the treatments, culture medium was removed and 300 μL of MTT 0.5 mg/mL diluted in culture medium was added to each well. After 90′ incubation at 37° C., the medium was removed and 250 μL aliquots of DMSO were added to each well to solubilize the formazan crystals. Absorbance was measured at 570 nm using a microplate reader. Cell viability was expressed as absorbance value.

[3] = system: alpha-synuclein aggregation in SK—N—SH cells; assay: Alpha-synuclein aggregation after glucose deprivation in SK-N-SH alpha-synuclein stable clones (immunocytochemistry); format: cell-based, human; conditions: for alpha-synuclein aggregates seen in images after GD: 24 h, vs non-treated (NT) cells, preliminary
Description: Human neuroblastoma SK—N—SH full length (fl) alpha-synuclein stable clones were seeded onto poly-D-lysine-coated glass coverslides in 24-well plates and were grown in complete medium comprising Dulbecco's modified Eagle's medium with 1000 mg glucose/l supplemented with 10% heat-inactivated fetal bovine serum, 100 μg/ml penicillin and 100 μg/ml streptomycin. Cells were maintained at 37° C. under a humidified atmosphere of 5% CO2 and […]. At 80% confluence, cells underwent glucose deprivation (GD) in order to induce alpha-synuclein aggregation (Bellucci, A.; et al. Journal of neurochemistry 2008, 106, 560-577). Briefly, GD was performed through an incubation of the cells with Hank's balanced salt solution supplemented with 2 mM glutamine and 10% heat-inactivated fetal bovine serum, for 1 h at 37° C. […] After 24 h of treatment, cells were fixed by incubating for 15 min in 4% paraformaldehyde with 4% sucrose in 1 M PBS, pH 7.4. The fixed cells were then stored in PBS-containing 0.05% sodium azide. Slides were incubated for 1 h at room temperature in blocking solution [2% w/v bovine serum albumin (BSA) plus 3% v/v normal goat serum in PBS], then overnight at 4° C. with the primary antibody (Syn211 antibody against alpha-synuclein) at the optimal working dilution. On the following day, cells were incubated for 1 h at room temperature with the Cy3-conjugated secondary antibody diluted in 0.1% Triton X-100 PBS plus BSA 1 mg/ml. Finally, cell nuclei were counterstained with Hoechst 33258 dye, and the coverslips were mounted onto glass slides using Vectashield.

[4] = system: aged human alpha-synuclein transgenic mouse model of Parkinson's disease; conditions: independent of dopamine transporter inhibition; abolished by Synapsin III gene silencing; cited from earlier work
[5] = system: advanced Parkinson's disease; conditions: cited from earlier work
[6] = system: alpha-synuclein aggregation in primary mesencephalic neurons; assay: Alpha-synuclein aggregation in primary mouse midbrain neurons exposed to glucose deprivation; format: cell-based; conditions: I-threo, VI-threo 50 and 100 nM, MPH 100 nM

T1 sequence (O14994 whole entry, one chain of several): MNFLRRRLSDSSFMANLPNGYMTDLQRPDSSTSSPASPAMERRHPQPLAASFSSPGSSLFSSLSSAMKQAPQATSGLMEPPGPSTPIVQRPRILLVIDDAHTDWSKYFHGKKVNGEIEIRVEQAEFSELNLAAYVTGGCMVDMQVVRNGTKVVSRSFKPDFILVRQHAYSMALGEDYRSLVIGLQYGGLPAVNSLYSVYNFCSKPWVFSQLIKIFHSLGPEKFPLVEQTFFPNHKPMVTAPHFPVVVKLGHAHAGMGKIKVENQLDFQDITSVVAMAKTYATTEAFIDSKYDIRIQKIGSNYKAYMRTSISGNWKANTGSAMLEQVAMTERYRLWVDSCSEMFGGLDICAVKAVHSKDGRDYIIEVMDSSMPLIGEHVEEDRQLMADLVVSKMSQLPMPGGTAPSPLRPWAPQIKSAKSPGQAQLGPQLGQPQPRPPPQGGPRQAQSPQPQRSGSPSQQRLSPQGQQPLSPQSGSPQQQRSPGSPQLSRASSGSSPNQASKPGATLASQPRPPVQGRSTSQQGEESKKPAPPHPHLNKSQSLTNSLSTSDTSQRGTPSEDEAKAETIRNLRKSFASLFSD

COC(=O)[C@@H](c1ccc2ccccc2c1)C1CCCCN1.Cl (stereo partly drawn) [IV-threo]
stimulation of alpha-synuclein/Synapsin III interaction (FRET efficiency), in words [1]: not able to stimulate alpha-synuclein/Synapsin III interaction; also recorded: No significant increase
cell viability (MTT) at 100 μM ([2]; 100 μM): the same profile of I-threo; also recorded: significant decrease in cell viability

COC(=O)[C@@H](Cc1ccc(C)cc1)C1CCCCN1.Cl (stereo partly drawn) [IX-threo]
% FRET efficiency change vs MPH-treated cells [1]: +4.6%

COC(=O)C(c1ccccc1)C1CCCCN1 (stereo not shown) [MPH, Methylphenidate, reference compound]
alpha-synuclein aggregates seen in images after GD ([3]; 10 μM): a reduction in the formation of alpha-synuclein aggregates
EC50 ([3]; Homo sapiens, SK-N-SH cells, read-out: EC50 in reducing alpha-synuclein aggregation): 37.3 µM
Synapsin III-dependent locomotor activity [4]: over-stimulate a Synapsin III-dependent locomotor activity
freezing of gait [5]: efficiently counteract freezing of gait

COC(=O)[C@@H](c1ccc(-c2ccccc2)cc1)C1CCCCN1.Cl (stereo partly drawn) [V-threo]
stimulation of alpha-synuclein/Synapsin III interaction (FRET efficiency), in words [1]: not able to stimulate alpha-synuclein/Synapsin III interaction; also recorded: No significant increase
concentration from which markedly toxic (MTT) ([2]; 0.01-100 μM tested): ≥ 100 nM
cytotoxicity (MTT), in words ([2]; low concentrations): cytotoxicity at low concentrations

COC(=O)[C@@H](c1ccc(C)cc1)C1CCCCN1C.Cl (stereo partly drawn) [VI-threo, threo methyl 2-(1-methylpiperidin-2-yl)-2-(p-tolyl)acetate hydrochloride]
% FRET efficiency change vs control untreated cells ([1]; neuronally differentiated SK-N-SH cells): +3.4%
alpha-synuclein aggregates seen in images after GD ([3]; 10 μM): no aggregates were observed
formation of alpha-synuclein inclusions after GD (immunofluorescence intensity and average particle size) ([3]; 10 μM, 24 h after 1 h glucose deprivation, vs untreated, hydrochloride): significantly reduce the formation of alpha-synuclein inclusions; also recorded: significantly reduce alpha-synuclein aggregation in vitro
alpha-synuclein inclusion formation (total immunofluorescence intensity and particle size) [6]: did not reduce alpha-synuclein aggregation
toxic effects (MTT) at the working concentrations ([2]; concentrations reducing aggregation or stimulating interaction): did not exhibit toxic effects

COC(=O)[C@@H](Cc1ccccc1)C1CCCCN1.Cl (stereo partly drawn) [VII-threo, threo methyl 3-phenyl-2-(piperidin-2-yl)propanoate hydrochloride]
% FRET efficiency change vs MPH-treated cells [1]: +4.3%

Source: patent US12629359B2 (UNIVERSITA' DEGLI STUDI DI BRESCIA, priority 2020, dated 2026)
